These results are taken from patent US12202805B2, “Process for preparing (5S)-{[2-(4-carboxyphenyl)ethyl] |2-(2-{|3-chloro-4'-(trifluoromethyl)biphenyl-4-yl]methoxy}phenyl)ethyl]aminol-5,6,7,8-tetrahydroquinoline-2-carboxylic acid and its crystalline forms for use as pharmaceutically active compound” (Bayer Aktiengesellschaft, priority 2021, dated 2025).

Data set [1] deals with thromboxane A2 challenged PAH-minipig. In words: Haemodynamics in the anesthetized thromboxane challenged minipig, intratracheal dry powder (PAP, BP). In kind it is in vivo, Göttingen Minipigs. On the procedure:
Healthy Göttingen Minipigs® Ellegaard (Ellegaard, Denmark) of both sexes and having a weight of 2-6 kg were used. The animals were sedated by i.m. administration of about 25 mg/kg ketamine and about 10 mg/kg azaperone. Anaesthesia was initiated by i.v. administration of about 2 mg/kg ketamine and about 0.3 mg/kg midazolam. Maintenance of anaesthesia was by i.v. administration of about 7.5-30 mg/kg/h ketamine and about 1-4 mg/kg/h midazolam (rate of infusion 1-4 ml/kg/h) and about 150 μg/kg/h pancuronium bromide (for example Pancuronium-Actavis). After intubation, the animals were ventilated by the ventilator at a constant respiratory volume (10-12 ml/kg, 35 breaths/min; Avea®, Viasys Healthcare, USA, or Engström Carestation, GE Healthcare, Freiburg, Germany) such that an end-tidal CO2 concentration of about 5% was achieved. Ventilation was performed with room air, enriched with about 40% oxygen (normoxia). For the measurement of the haemodynamic parameters such as pulmonary arterial pressure (PAP), blood pressure (BP) and heart rate (HR), catheters were inserted into the carotid artery to measure the blood pressure, and a Swan-Ganz® catheter was introduced in a flow-directed manner via the jugular vein into the pulmonary artery. The haemodynamic signals were recorded and evaluated by means of pressure transducers (Combitransducer, B. Braun, Melsungen, Germany)/amplifiers and Ponemah® as data acquisition software.
As reference pure Lactose vehicle was applied in the beginning of each experiment.

Data set [2] can be described thus: Protein binding via Transil assay, human plasma. The format is in vitro ADME. How it is done:
Protein Binding of Comparative Example 11 and Comparative Example 1 was Analyzed Via Transil Assay, Described Below.
The distribution of a test substance between Transil® (phosphatidylcholine lipid bilayers immobilized on silica beads) and plasma is a characteristic feature of any pharmaceutical compound and is dependent on its extent of binding to plasma proteins. By comparing the distribution between Transil® and buffer with the distribution between Transil® and plasma of any species of interest, the unbound fraction in the plasma of the respective animal species can be calculated in vitro. The respective plasma and buffer concentrations were determined via a radioactivity analysis. A detailed description of the method and its validation was published by Schuhmacher et al. (2).

The nature of data set [3]: Storage stability of pseudopolymorphic forms (XRPD). The format is physicochemical. Particulars: for Result (form after storage): monohydrate II.
Data set [4] can be described thus: Micronization in spiral jet mill: solid form (XRPD) and particle size distribution. In kind it is physicochemical. The settings on record: for PSD X10 / PSD X50 / PSD X90: dry measurement 4 bar. The text has this:
For inhalative drug products it is important to guarantee a homogeneous drug substance with defined particle size <5 μm to secure delivery to the deep lung compartments. This technical requirement can be afforded by micronization of the drug substance particles.
Generally no amorphization even partial nor form conversion should happen during the necessary micronization step.
The corresponding batches (examples 8a-8 d) were micronized using a 50 mm spiral jet mill and pressurized nitrogen with the following parameters (see table 16b).
The corresponding batches were micronized using a 100 mm spiral jet mill and pressurized nitrogen with the following parameters (see table 16c).
All measurements cited in the above tables were obtained by laser diffraction with dry dispersion using compressed air. Measuring in aqueous suspension with surfactants may lead to smaller particle sizes (×90 up to 1 μm smaller).

Where [5] appears, read: PTFE coated jet mill, 25° C., 4.5/4.0 bar, 4.5 g/min.
The mark [6] stands for this setting: VA jet mill 50 mm, 25° C., 4.5/4.0 bar, 4.5 g/min.
[7] abbreviates: VA jet mill (low stress conditions), −65° C., 4.5/3.0 bar, 10.6 g/min.
Setting [8] is: VA jet mill, −65° C., 4.5/4.0 bar, 5.5 g/min.
Where [9] appears, read: after micronization, 100 mm spiral jet mill, monohydrate I as starting material.

SMILES strings stand for the structures.

In data set [1] (dry powder i.t., lower doses not applicable), `O=C(O)c1ccc(CCN(CCc2ccccc2OCc2ccc(-c3ccc(C(F)(F)F)cc3)cc2Cl)[C@H]2CCCc3nc(C(=O)O)ccc32)cc1` [comparative example 11, (5S)-5-{[2-(4-carboxyphenyl)ethyl][2-(2-{[3-chloro-4′-(trifluoromethyl)[biphenyl]-4-yl]methoxy}phenyl)ethyl]amino}-5,6,7,8-tetrahydroquinoline-2-carboxylic acid] gave an MED of no more than 7.5 µg/kg. Also, the “free fraction, times lower than comparative example 1” value in data set [2] stood at 2 times.
For `O=C(O)c1ccc(CCN(CCc2ccccc2OCc2ccc(-c3ccc(C(F)(F)F)cc3)cc2Cl)[C@H]2CCCc3nc(C(=O)O)ccc32)cc1` [example 2, (5S)—{[2-(4-Carboxyphenyl)ethyl][2-(2-{[3-chloro-4′-(trifluoromethyl)biphenyl-4-yl]methoxy}phenyl)-ethyl]amino}-5,6,7,8-tetrahydroquinoline-2-carboxylic acid as Monohydrate II], the “Result (form after storage)” value is on record as “monohydrate I” in data set [3] (brown glass closed with paper filter disc, 40° C., 75% relative humidity); “monohydrate II” in data set [3] (brown glass snap on closure, 25° C., 60% relative humidity, one, three and six months); “monohydrate I” in data set [3] (polyethylene, 25° C., 60% relative humidity); “monohydrate I” in data set [3] (polyethylene, 40° C., 75% relative humidity). The “PSD X10” value in data set [4] (setting [5]) is “X10: 0.7 μm,”; in data set [4] (setting [6]), “X10: 0.4 μm,”; in data set [4] (setting [7]), “X10: 0.5 μm,”; in data set [4] (setting [8]), “X10: 0.4 μm,”. The “PSD X50” value is listed as “X50: 1.9 μm,” in data set [4] (setting [5]), “X50: 1.7 μm,” in data set [4] (setting [6]), “X50: 2.3 μm,” in data set [4] (setting [7]) and “X50: 1.8 μm,” in data set [4] (setting [8]). For the same molecule, the “PSD X90” value is “X90: 5.0 μm” in data set [4] (setting [5]), “X90: 4.2 μm” in data set [4] (setting [6]), “X90: 9.6 μm” in data set [4] (setting [7]) and “X90: 4.8 μm” in data set [4] (setting [8]). For the same molecule, the “XRPD form after micronization” value in data set [4] (batch of example 2) is recorded as “monohydrate II with partial amorphization”. Moreover, the systemic blood pressure entry in data set [1] (375 μg/kg i.t., within the last hour of the observation interval) is “slightly affected”. Further, the “efficacy with regard to PAP reduction as well as systemic BP reduction” value in data set [1] (micronized hydrates, 1.5 mg/4 kg (=375 μg/kg) i.t.) is reported as “comparable efficacy”. Also, the “BP, % changes vs. prevalues” was determined as 100.0% in data set [1] (time 80 min, 375 μg/kg i.t.); 97.0% in data set [1] (time 130 min, 375 μg/kg i.t.); 97.0% in data set [1] (time 140 min, 375 μg/kg i.t.); 97.0% in data set [1] (time 200 min, 375 μg/kg i.t.). Further, the free fraction (fraction unbound) in data set [2] (read-out: plasma fu (fraction unbound)) came to 0.000764.
For `O=C(O)c1ccc(CCN(CCc2ccccc2OCc2ccc(-c3ccc(C(F)(F)F)cc3)cc2Cl)[C@H]2CCCc3nc(C(=O)O)ccc32)cc1` [example 4, (5S)—{[2-(4-Carboxyphenyl)ethyl][2-(2-{[3-chloro-4′-(trifluoromethyl)biphenyl-4-yl]methoxy}phenyl)-ethyl]amino}-5,6,7,8-tetrahydroquinoline-2-carboxylic acid as Monohydrate I], in data set [3] (under the storage conditions of Table 15), the storage stability entry is “stable”. In addition, in data set [4] (100 mm spiral jet mill, pressurized nitrogen), the “stability under micronization conditions” value is listed as “stable”. Also, in data set [4] (setting [9]), the “PSD X10” value is “X10: 0.7 μm,”, the “PSD X50” value is reported as “X50: 2.1 μm,” and the “PSD X90” value is “X90: 6.1 μm”.
